Assay results reported in patent US4994270A, “A54145 antibiotics and process for their production” (Eli Lilly and Company, priority 1988, dated 1991).
Converted amounts (≈) assume the structure as drawn. “And” between values parts separate entries of the source, which are not always exact repeats. Identical values can stand only once. Starred links: 1 amine or outer side, 2 acyl side, 3 side chain; linkers in the order of their positions; H or OH if unused. Positions of bridges follow the written chain, without caps; N, C: chain ends. Non-standard residues stand in square brackets, D forms with d. Residues, ends and D or L forms follow the SMILES beside them. ξ: configuration not given here. *: point of attachment. ξAsp(3ξ-OMe) = COC(C(=O)O)C(N)C(=O)O; X1 = CC(CC(=O)O)C(N[*:1])C(=O)[*:2]; ξAsn(3ξ-OH) = NC(=O)C(O)C(N)C(=O)O; Decanoyl = CCCCCCCCCC(=O)*; X2 = CC(C)CCCCCCC(=O)*; Sar = CNCC(=O)O

Key:
[1] = tested on: Streptococcus pyogenes; experiment: ED50 in experimentally infected mice; format: in vivo; conditions: mice infected with Streptococcus pyogenes, subcutaneous; for ED50 Value: doses given 1 and 4 hours postinfection
Protocol: (§1) The A54145 antibiotics have shown in vivo antimicrobial activity against experimentally-induced infections in laboratory animals. When two doses of test compound were administered to mice experimentally infected with Streptococcus pyogenes or Staphylococcus aureus, the activity observed was measured as an ED50 value [effective dose in mg/kg to protect 50% of the test animals: see Warren Wick, et al. J. Bacteriol. 81 233-235 (1961)].

[2] = tested on: Staphylococcus aureus V41; experiment: MIC, conventional agar-dilution assay; format: cell-based
Protocol: (§2) The A54145 antibiotics inhibit the growth of pathogenic bacteria. […] The MIC's in Table IX were determined by conventional agar-dilution assays.

[3] = tested on: Staphylococcus aureus S13E; experiment: MIC, conventional agar-dilution assay; format: cell-based
Protocol: as §2

[4] = tested on: Staphylococcus epidermidis 222; experiment: MIC, conventional agar-dilution assay; format: cell-based
Protocol: as §2

[5] = tested on: Staphylococcus aureus X1.1; experiment: MIC, conventional agar-dilution assay; format: cell-based
Protocol: as §2

[6] = tested on: Staphylococcus epidermidis EPI1; experiment: MIC, conventional agar-dilution assay; format: cell-based
Protocol: as §2

[7] = tested on: Staphylococcus aureus X400; experiment: MIC, conventional agar-dilution assay; format: cell-based
Protocol: as §2

[8] = tested on: Streptococcus pyogenes C203; experiment: MIC, conventional agar-dilution assay; format: cell-based
Protocol: as §2

[9] = tested on: Streptococcus pneumoniae Park1; experiment: MIC, conventional agar-dilution assay; format: cell-based
Protocol: as §2

[10] = tested on: Streptococcus sp. group 2041; experiment: MIC, conventional agar-dilution assay; format: cell-based
Protocol: as §2

[11] = tested on: Streptococcus sp. group D X66; experiment: MIC, conventional agar-dilution assay; format: cell-based
Protocol: as §2

[12] = tested on: Staphylococcus aureus; experiment: ED50 in experimentally infected mice; format: in vivo; conditions: mice infected with Staphylococcus aureus; subcutaneous; doses given 1 and 4 hours postinfection
Protocol: as §1

[13] = tested on: Streptococcus faecalis ATCC 29212; experiment: Stimulation of in vitro activity by calcium ions; format: cell-based; parameters: dose or concentration left out as unconfirmed
Protocol: (§3) The in vitro activity of the A54145 antibiotics is stimulated by the presence of calcium ions. For example, the in vitro activity of A54145A against Staphylococcus aureus 209P and Streptococcus faecalis ATCC 29212 was stimulated about 100 times by the presence of Ca^++ ([…]).

[14] = tested on: Staphylococcus aureus 209P; experiment: Stimulation of in vitro activity by calcium ions; format: cell-based; parameters: dose or concentration left out as unconfirmed
Protocol: as §3

[15] = Growth performance of starter pigs; format: in vivo
Excerpt: In this test, a total of 145 barrows and gilts, averaging 22 pounds starting weight, were used to determine the effect of various dosages of A54145 on the growth performance of starter pigs. The pigs were fed an 18% crude protein corn-soy diet and were housed in a completely enclosed building with wire mesh floors elevated over a flush floor. The effect of the treatments on performance was studied for a 28-day trial period.

[16] = Chick growth performance test (weight gain, feed efficiency); format: in vivo, chicks; conditions: for Weight Gain Amt.: chicks 7-14 days of age; for Feed/Gain % Impr. / Weight Gain % Impr.: relative to the control mean
Excerpt: In the tests, the compounds were given to chicks at the concentrations indicated in the feed. The test period was the 7-day period from 7-14 days of age of the birds. Growth performance (weight gain, feed consumption and feed efficiency) was compared to that of contemporary controls.

Row | SMILES | ED50 Value [1] | MIC [2] | MIC [3] | MIC [4] | MIC [5] | MIC [6] | MIC [7] | MIC [8] | MIC [9] | MIC [10] | MIC [11] | weight gains in chickens (in words) [16] | Feed/Gain Ratio ([16]; Table XIII, 5 g/ton) | Weight Gain Amt. ([16]; Table XIII, 5 g/ton in feed) | Feed/Gain % Impr. ([16]; Table XIII, 5 g/ton) | Weight Gain % Impr. ([16]; Table XIII, 5 g/ton) | Feed/Gain Ratio ([16]; Table XIII, 10 g/ton) | Weight Gain Amt. ([16]; Table XIII, 10 g/ton in feed) | Feed/Gain % Impr. ([16]; Table XIII, 10 g/ton) | Weight Gain % Impr. ([16]; Table XIII, 10 g/ton) | other results
1 | CCCCCCCCCC(=O)NC(Cc1c[nH]c2ccccc12)C(=O)NC(CCC(=O)O)C(=O)NC(C(=O)NC1C(=O)N(C)CC(=O)NC(C)C(=O)NC(CC(=O)O)C(=O)NC(CCCCN)C(=O)NC(C(OC)C(=O)O)C(=O)NCC(=O)NC(CC(N)=O)C(=O)NC(CCC(=O)O)C(=O)NC(C(C)CC)C(=O)OC1C)C(O)C(N)=O (stereo not drawn) [Component A54145A1] (Decanoyl-WE[ξAsn(3ξ-OH)]T[Sar]ADK[ξAsp(3ξ-OMe)]GNEI; ester 4-C; configuration not given here) | 5.0 mg/kg × 2 | 4 µg/mL (≈ 2.43 µM) | 8 µg/mL (≈ 4.86 µM) | 4 µg/mL (≈ 2.43 µM) | 4 µg/mL (≈ 2.43 µM) | 4 µg/mL (≈ 2.43 µM) | 8 µg/mL (≈ 4.86 µM) | 1 µg/mL (≈ 0.608 µM) | 4 µg/mL (≈ 2.43 µM) | 32 µg/mL (≈ 19.5 µM) | 16 µg/mL (≈ 9.73 µM) | – | – | – | – | – | – | – | – | – | –
2 | CCC(C)C1NC(=O)C(CCC(=O)O)NC(=O)C(CC(N)=O)NC(=O)CNC(=O)C(C(OC)C(=O)O)NC(=O)C(CCCCN)NC(=O)C(CC(=O)O)NC(=O)C(C)NC(=O)CN(C)C(=O)C(NC(=O)C(NC(=O)C(CCC(=O)O)NC(=O)C(Cc2c[nH]c3ccccc23)NC(=O)CCCCCCC(C)C)C(O)C(N)=O)C(C)OC1=O (stereo not drawn) [Component A54145A] (X2-WE[ξAsn(3ξ-OH)]T[Sar]ADK[ξAsp(3ξ-OMe)]GNEI; ester 4-C; configuration not given here) | 2.4 mg/kg × 2 | 8 µg/mL (≈ 4.86 µM) | 8 µg/mL (≈ 4.86 µM) | 4 µg/mL (≈ 2.43 µM) | 8 µg/mL (≈ 4.86 µM) | 4 µg/mL (≈ 2.43 µM) | 8 µg/mL (≈ 4.86 µM) | 2 µg/mL (≈ 1.22 µM) | 8 µg/mL (≈ 4.86 µM) | 64 µg/mL (≈ 38.9 µM) | 16 µg/mL (≈ 9.73 µM) | increased weight gains | – | – | – | – | – | – | – | – | ED50 Value, individual values of two tests ([1]; individual tests behind the average): 1.6 mg/kg × 2 and 3.1 mg/kg × 2; ED50 Value [12]: 3.3 mg/kg × 2; stimulation of in vitro activity by Ca++ [13]: about 100 times; stimulation of in vitro activity by Ca++ [14]: about 100 times; feed/gain ratio in pigs (in words) [15]: improved the feed/gain ratio; Feed/Gain Ratio ([16]; Table XII, 20 g/ton): 1.546; Weight Gain Amt. ([16]; Table XII, 20 g/ton in feed): 168 g; Feed/Gain % Impr. ([16]; Table XII, 20 g/ton): 11.0%; Weight Gain % Impr. ([16]; Table XII, 20 g/ton): 26.3%
3 | CCC(C)C1NC(=O)C(C(C)CC(=O)O)NC(=O)C(CC(N)=O)NC(=O)CNC(=O)C(C(OC)C(=O)O)NC(=O)C(CCCCN)NC(=O)C(CC(=O)O)NC(=O)C(C)NC(=O)CN(C)C(=O)C(NC(=O)C(NC(=O)C(CCC(=O)O)NC(=O)C(Cc2c[nH]c3ccccc23)NC(=O)CCCCCCC(C)C)C(O)C(N)=O)C(C)OC1=O (stereo not drawn) [Component A54145B1] (X2-WE[ξAsn(3ξ-OH)]T[Sar]ADK[ξAsp(3ξ-OMe)]GN[X1]I; ester 4-C; configuration not given here) | – | 2 µg/mL (≈ 1.21 µM) | 2 µg/mL (≈ 1.21 µM) | 1 µg/mL (≈ 0.603 µM) | 2 µg/mL (≈ 1.21 µM) | 1 µg/mL (≈ 0.603 µM) | 2 µg/mL (≈ 1.21 µM) | 0.5 µg/mL (≈ 0.301 µM) | 2 µg/mL (≈ 1.21 µM) | 32 µg/mL (≈ 19.3 µM) | 8 µg/mL (≈ 4.82 µM) | – | 1.906 | 326 g | 5.3% | 3.5% | 1.860 | 358 g | 7.4% | 13.7% | Feed/Gain Ratio ([16]; Table XIII, 20 g/ton): 1.686; Weight Gain Amt. ([16]; Table XIII, 20 g/ton in feed): 448 g; Feed/Gain % Impr. ([16]; Table XIII, 20 g/ton): 16.2%; Weight Gain % Impr. ([16]; Table XIII, 20 g/ton): 42.2%
4 | CCCCCCCCCC(=O)NC(Cc1c[nH]c2ccccc12)C(=O)NC(CCC(=O)O)C(=O)NC(C(=O)NC1C(=O)N(C)CC(=O)NC(C)C(=O)NC(CC(=O)O)C(=O)NC(CCCCN)C(=O)NC(C(OC)C(=O)O)C(=O)NCC(=O)NC(CC(N)=O)C(=O)NC(C(C)CC(=O)O)C(=O)NC(C(C)CC)C(=O)OC1C)C(O)C(N)=O (stereo not drawn) [Component A54145B] (Decanoyl-WE[ξAsn(3ξ-OH)]T[Sar]ADK[ξAsp(3ξ-OMe)]GN[X1]I; ester 4-C; configuration not given here) | 0.94 mg/kg × 2 | 2 µg/mL (≈ 1.21 µM) | 2 µg/mL (≈ 1.21 µM) | 2 µg/mL (≈ 1.21 µM) | 2 µg/mL (≈ 1.21 µM) | 2 µg/mL (≈ 1.21 µM) | 2 µg/mL (≈ 1.21 µM) | 0.5 µg/mL (≈ 0.301 µM) | 2 µg/mL (≈ 1.21 µM) | 8 µg/mL (≈ 4.82 µM) | 4 µg/mL (≈ 2.41 µM) | increased weight gains | 1.887 | 341 g | 6.3% | 8.3% | 1.730 | 392 g | 14.1% | 24.4% | Feed/Gain Ratio ([16]; Table XIII, 20 g/ton): 1.785; Weight Gain Amt. ([16]; Table XIII, 20 g/ton in feed): 402 g; Feed/Gain % Impr. ([16]; Table XIII, 20 g/ton): 11.3%; Weight Gain % Impr. ([16]; Table XIII, 20 g/ton): 27.6%
